# Measured values: the supplement of paper PMC10307832
# Columns and labels:
# Assay in all cases: relative viability (nuclei count vs DMSO), 5 days (fraction); higher = more cells survive
# TPCA-1 + Luminespib = compound: C1=CC(=CC=C1C2=CC(=C(S2)NC(=O)N)C(=O)N)F [TPCA-1] + CCNC(=O)c1noc(-c2cc(C(C)C)c(O)cc2O)c1-c1ccc(CN2CCOCC2)cc1 [Luminespib] (partner 0.01 µM)
# Outline: (§1)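 A single step with final 0.05% Triton X-100, 1% formaldehyde and 1 ug/ml Hoechst fixed the cells and stained nuclei 5 days after treatment. Lung cancer cell lines in 1536-well plates had been treated by pin tool the day after seeding with one drug alone or a fixed anchor-drug dose plus five library-drug doses (not always all listed) in √10 steps, and nuclei were counted on 4× images. Relative viability is the ratio of nuclei in treated wells to nuclei in vehicle wells, taken as the median of duplicate plates.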
# TPCA-1 + AZD7762 = compound: C1=CC(=CC=C1C2=CC(=C(S2)NC(=O)N)C(=O)N)F [TPCA-1] + NC(=O)Nc1cc(-c2cccc(F)c2)sc1C(=O)N[C@H]1CCCNC1 [AZD7762] (partner 0.2 µM)
# Outline: as §1
# [1] = compound: C1/C(=C\C2=CC=CS2)/C(=O)/C(=C/C3=CC=CS3)/C1 + CC(=O)Nc1cccc(-n2c(=O)n(C3CC3)c(=O)c3c(Nc4ccc(I)cc4F)n(C)c(=O)c(C)c32)c1 [Trametinib] (partner 0.02 µM)
# Outline: as §1
# [2] = compound: C1/C(=C\C2=CC=CS2)/C(=O)/C(=C/C3=CC=CS3)/C1 + Nc1nc2[nH]cc(CCc3ccc(C(=O)N[C@@H](CCC(=O)O)C(=O)O)cc3)c2c(=O)[nH]1 [Pemetrexed] (partner 0.2 µM)
# Outline: as §1
Cell Line,relative viability (TPCA-1 + Luminespib; first compound 0.04 µM),relative viability (TPCA-1 + Luminespib; first compound 0.1265 µM),relative viability (TPCA-1 + Luminespib; first compound 0.4 µM),relative viability (TPCA-1 + Luminespib; first compound 1.265 µM),relative viability (TPCA-1 + Luminespib; first compound 4 µM),relative viability (TPCA-1 + AZD7762; first compound 0.04 µM),relative viability (TPCA-1 + AZD7762; first compound 0.1265 µM),relative viability (TPCA-1 + AZD7762; first compound 0.4 µM),relative viability (TPCA-1 + AZD7762; first compound 1.265 µM),relative viability (TPCA-1 + AZD7762; first compound 4 µM),relative viability ([1]; first compound 0.2 µM),relative viability ([1]; first compound 0.6325 µM),relative viability ([1]; first compound 2 µM),relative viability ([1]; first compound 6.325 µM),relative viability ([1]; first compound 20 µM),relative viability ([2]; first compound 0.2 µM),relative viability ([2]; first compound 0.6325 µM),relative viability ([2]; first compound 2 µM),relative viability ([2]; first compound 6.325 µM),relative viability ([2]; first compound 20 µM)
HOP-62,0.98,0.924,0.93,0.893,0.812,0.554,0.557,0.669,0.523,0.436,0.346,0.457,0.377,0.381,0.391,0.307,0.316,0.248,0.243,0.342
NCI-H650,0.858,0.788,0.849,0.499,0.328,1.03,0.895,1.1,0.541,0.906,1.11,1,0.884,0.943,0.944,0.813,1.02,0.948,0.941,0.858
NCI-H358,0.286,0.366,0.279,0.266,0.125,0.467,0.406,0.73,0.501,0.312,0.124,0.134,0.148,0.133,0.132,0.213,0.207,0.171,0.191,0.177
BEN,0.329,0.358,0.405,0.492,0.191,0.677,0.665,0.9,1.08,0.505,1.01,1.11,1.04,1.05,0.977,0.82,0.781,1.03,0.662,0.657
ChaGo-K-1,0.766,0.689,0.698,0.453,0.302,0.869,0.883,0.904,0.8,0.522,0.9,0.949,0.838,0.675,0.478,0.259,0.26,0.278,0.224,0.25
NCI-H1755,0.596,0.408,0.357,0.35,0.418,0.444,0.634,0.402,0.337,0.378,0.75,0.768,0.794,0.627,0.714,0.436,0.413,0.484,0.369,0.387
LC-2-ad,1.13,1.01,0.826,0.908,0.663,0.883,0.803,0.837,0.83,0.221,0.9,0.94,0.893,0.781,0.897,0.272,0.298,0.268,0.25,0.287
NCI-H1666,1.03,0.99,1.08,1.04,1.05,0.895,0.659,0.79,0.714,0.757,0.855,0.86,0.791,0.861,0.77,0.82,0.84,0.877,0.791,0.813
201T,1.1,1.07,1.07,1.05,0.967,0.704,0.63,0.627,0.582,0.558,0.708,0.704,0.736,0.708,0.706,0.351,0.367,0.333,0.313,0.33
NCI-H1395,0.762,0.695,0.647,0.709,0.644,0.398,0.378,0.381,0.37,0.444,1.13,0.996,1.08,0.88,1.09,0.889,0.912,1.08,0.819,0.971
LU99A,0.34,0.302,0.241,0.349,0.231,0.356,0.364,0.412,0.281,0.247,0.626,0.558,0.555,0.495,0.497,0.217,0.185,0.172,0.17,0.164
NCI-H1437,1.04,1.14,1.03,1.12,1.2,1.19,–,1.14,1.03,0.906,0.51,0.52,0.442,0.461,0.428,0.286,0.362,0.353,0.252,0.311
EKVX,0.885,0.845,0.933,0.756,0.809,0.739,–,0.813,0.669,0.677,0.415,0.307,0.368,–,0.295,0.394,0.347,0.453,–,0.389
LCLC-97TM1,0.877,0.614,0.71,0.541,0.482,0.231,0.237,0.223,0.164,0.217,0.216,0.198,0.221,0.174,0.218,0.175,0.178,0.167,0.165,0.187
NCI-H2170,0.968,0.703,0.535,0.681,0.277,1.13,0.815,0.892,0.766,0.474,0.918,0.92,0.863,0.78,0.867,0.283,0.246,0.259,0.245,0.256
NCI-H1793,0.173,–,0.142,0.142,0.134,0.53,0.649,0.751,0.392,0.144,0.429,0.452,0.49,0.403,0.463,0.973,0.711,1.03,0.796,0.914
